Test results published in patent US8518956B2, “1-(1-(2-ethoxyethyl)-3-ethyl-7-(4-methylpyridin-2-ylamino)-1H-pyrazolo[4,3-d]pyrimidin-5-yl) piperidine-4-carboxylic acid and salts thereof” (priority 2005, dated 2013).

target: T1, PDE5 enzyme (Homo sapiens, UniProt O76074); test: Method 1: Human Platelet PDE5 Enzyme Inhibition Scintillation Proximity Assay; assay type: biochemical; conditions: METHOD 1: PDE5 IC50, Table B, WO2004096810 examples
T1 construct: The PDE5 enzyme isolated from human platelets; from tissue; host or cells: human platelets
Description: Method 1: Human Platelet PDE5 Enzyme Inhibition Scintillation Proximity Assay
An in vitro assay can be used to evaluate the inhibition of PDE5 enzyme activity by a test compound.
The PDE5 enzyme for use in the assay can be obtained from human platelets by appropriate modification of the method of Thompson, W J et al.; Biochemistry 18(23), 5228-5237, 1979, as described by Ballard S A et al.; J. Urology 159(6), 2164-2171, 1998. The PDE5 enzyme isolated from human platelets can be used to catalyze the hydrolysis of [^3H]cGMP (Amersham Biosciences) to 5′ nucleotide [^3H]GMP. The [^3H]GMP binds to yttrium silicate SPA beads (Amersham Biosciences) and is detected by scintillation counting. More specifically, the effect of the test compound at different concentrations can be evaluated in the assay by contacting the compound with a fixed amount of PDE5 enzyme in the presence of substrate (cGMP or cAMP in a 3:1 ratio unlabelled to [^3H]-labeled). Scintillation counting can be used as described above to determine relative PDE5 enzyme activity. The inhibition of PDE5 enzyme activity is then calculated relative to total PDE5 enzyme activity of uninhibited controls.
PDE5 IC50 Assay: 96-well microtiter plate format
• Buffer A: 20 mM Tris-HCl, 5 mM MgCl2, pH 7.4 • Buffer B: 2 mg/ml BSA in Buffer A (enzyme buffer) • cGMP substrate: Final concentration of 500 nM in assay The amount of ^3H-labeled substrate added depends upon the specific activity of [^3H]cGMP, and the cGMP substrate is diluted with a 10 mM stock of cold cGMP in Buffer A for a final substrate concentration of 500 nM in the assay. • PDE enzyme: Prepared in Buffer B. The dilution factor is determined by enzyme activity. • SPA beads: 20 mg/ml suspension prepared in dH2O.
Stocks of standard and test compounds are prepared at 5 mM in 100% DMSO. The compound is serially diluted in a dilution plate using a 10-point ½ log dilution format. 2 μl of the compound dilution is added in duplicate to the wells of the assay plate. 2 μl of 100% DMSO are added to designated control wells. 25 μl of Buffer A are added to all wells. 25 μl of Buffer B are added to the negative control wells. 25 μl of enzyme are added to the remaining wells. 50 μl of substrate are added to each well. Plates are sealed and incubated for 60 minutes on a plate shaker at 30 C. 50 plof SPA beads are added to stop the reaction. The plates are again sealed and shaken for 15 minutes to allow the beads to bind the GMP product. The beads are allowed to settle for 30 minutes and then read on a NXT TopCount scintillation counter. Data are analyzed with a curve fitting application for plate-based screening. Percent inhibition in this assay is calculated as follows: Inhibition (%)=[(mean maximum−compound value/(mean maximum−mean minimum)]×100.
The IC50 value is determined from sigmoid dose-response curves of enzyme activity versus compound concentration.

| SMILES | IC50 [µM] |
| --- | --- |
| Cc1ccnc(Nc2nc(N3CCNCC3)nc3c(C)nn(Cc4ccccn4)c23)c1 [WO2004096810 Example 167] | 0.00295 |
| Cc1ccc(Nc2nc(N3CCN[C@H](C)C3)nc3c(C)nn(C(C)C)c23)nc1 [WO2004096810 Example 9] | 0.508 |
| CCc1nn(CCOC)c2c(Nc3ccc(C)cn3)nc(N3CCNCC3)nc12 [WO2004096810 Example 151] | 0.022 |
| CCCc1nn(C)c2c(Nc3cc(C)ccn3)nc(N3CCN[C@H](C)C3)nc12 [WO2004096810 Example 40] | 0.334 |
| CCOCCn1nc(CC)c2nc(N3C[C@@H](C)NC[C@@H]3C)nc(Nc3ccncn3)c21 [WO2004096810 Example 150] | 0.00183 |
| COCCn1nc(C)c2nc(N3C[C@@H](C)NC[C@@H]3C)nc(Nc3ccncn3)c21 [WO2004096810 Example 144] | 0.00534 |
| CCOCCn1nc(CC)c2nc(N3C[C@@H](C)NC[C@@H]3C)nc(Nc3ccc(C)cn3)c21 [WO2004096810 Example 149] | 0.0348 |
| CCOCCn1nc(C)c2nc(N3CCN[C@@H](C(C)C)C3)nc(Nc3ccncn3)c21 [WO2004096810 Example 14] | 0.0421 |
| CCc1nn(CCOC)c2c(Nc3cc(C)ccn3)nc(N3CCC(O)CC3)nc12 [WO2004096810 Example 94] | 0.0432 |
| CCOCCn1nc(C)c2nc(N3CCN[C@H](C)C3)nc(Nc3cc(C)ncn3)c21 [WO2004096810 Example 26] | 0.00183 |
| COCCNc1nc(Nc2cc(C)ccn2)c2c(n1)c(C)nn2CCOC [WO2004096810 Example 93] | 0.0311 |
| Cc1ccnc(Nc2nc(N3CCNCC3)nc3c(C)n(Cc4ccccn4)nc23)c1 [WO2004096810 Example 176] | 0.274 |
| CCc1nn(CCOC)c2c(Nc3cc(C)n[nH]3)nc(NCCn3cccn3)nc12 [WO2004096810 Example 115] | 0.22 |

More lines, now with the values ahead:

| IC50 [µM] | SMILES |
| --- | --- |
| 0.00306 | CCOCCn1nc(CC)c2nc(N(C)[C@H]3CCN(C)C3)nc(Nc3ccc(C)cn3)c21 [WO2004096810 Example 192] |
| 0.00255 | CCOCCn1nc(C)c2nc(N(C)CC)nc(Nc3ccncn3)c21 [WO2004096810 Example 217] |
| 0.341 | CCc1nn(CCOC)c2c(Nc3cc(C)n[nH]3)nc(N3CCNCC3)nc12 [WO2004096810 Example 180] |
| 0.0101 | CCOCCn1nc(C)c2nc(N3CCN[C@H](C)C3)nc(Nc3cc(C(F)(F)F)ccn3)c21 [WO2004096810 Example 222] |
| 0.0354 | CCOCCn1nc(C)c2nc(N3CCN[C@H](C)C3)nc(Nc3nccc(C)n3)c21 [WO2004096810 Example 221] |
| 0.00251 | CCOCCn1nc(C)c2nc(N3C[C@@H]4C[C@H]3CN4)nc(Nc3cc(C)ccn3)c21 [WO2004096810 Example 236] |
| 0.00039 | CCOCCn1nc(CO)c2nc(N(C)CC)nc(Nc3cc(C)ccn3)c21 [WO2004096810 Example 181] |
| 0.535 | Cc1ccnc(Nc2nc(N3CCNCC3)nc3c(C)n(CC4CCC4)nc23)c1 [WO2004096810 Example 177] |
| 0.00624 | CCOCCn1nc(C)c2nc(N3CC(N(C)C)C3)nc(Nc3cc(C)ccn3)c21 [WO2004096810 Example 205] |
| 0.00609 | CCOCCn1nc(C)c2nc(N3C[C@@H]4C[C@H]3CN4C)nc(Nc3cc(C)ccn3)c21 [WO2004096810 Example 206] |
| 0.0609 | CCOCCn1nc(C)c2nc(N(C)CCN(C)C)nc(Nc3ccncn3)c21 [WO2004096810 Example 216] |
| 0.00157 | CCOCCn1nc(COC)c2nc(N3CCN[C@H](C)C3)nc(Nc3cccc(C)n3)c21 [WO2004096810 Example 211] |
| 0.01 | CCOCCn1nc(C)c2nc(N3CCN[C@H](C)C3)nc(Nc3cc(C)cc(C)n3)c21 [WO2004096810 Example 198] |
| 0.00013 | CCOCCn1nc(COC)c2nc(N(C)CC)nc(Nc3cc(C)ccn3)c21 [WO2004096810 Example 212] |
| 0.00071 | CCOCCn1nc(C)c2nc(N(C)CCO)nc(Nc3cc(C)ccn3)c21 [WO2004096810 Example 208] |
| 0.00096 | CCOCCn1nc(C)c2nc(N3CCN[C@H](C)C3)nc(Nc3ccc(OC)cn3)c21 [WO2004096810 Example 195] |
